We go through 9 compounds from paper PMC6862331, “Identification of Isoform-Selective Ligands for the Middle Domain of Heat Shock Protein 90 (Hsp90)” (International Journal of Molecular Sciences, 2019).

Test [1] has as its target T1, recombinant human Hsp90β MD (Homo sapiens, UniProt P08238).
T1 construct: made in house; host or cells: Escherichia coli BL21 (DE3)
Put plainly: Intrinsic tryptophan fluorescence spectroscopy (quenching screen and KD titration) with Hsp90β MD. It counts as binding. As to conditions: for binding to Hsp90β MD in initial screening: less than 40% quenching eliminated; for selectivity (preference) for the β-isoform over the α-isoform in terms of KD: Hsp90β MD vs Hsp90α MD; for Kd: titration, 20 µM Hsp90 MD, 20 mM Tris pH 7.5, 0.2 M KCl, triplicate, error = SD. The text has this: (§1) As a result of virtual screening, 24 hit compounds (Figure 1 and Table S3) were selected for further experimental testing against recombinant human Hsp90α MD (residues 294 to 554, Table S4) and human Hsp90β MD (residues 286 to 546, Table S5). As there are tryptophan residues located within the defined binding pocket in both Hsp90α MD and Hsp90β MD, intrinsic tryptophan fluorescence quenching experiment was used to screen the binding of our virtual hits to the proteins. Initial screening experiments were conducted by using 20 μM of Hsp90α/β MD and 1 mM of compounds. Molecules that gave less than 40% fluorescence quenching were eliminated.
(§2) We then focussed on studying the binding of our compounds (5, 8, 9, 10, 12, 17, 22, 24) to both Hsp90α MD and Hsp90β MD. Titration experiments were performed to quantify the binding affinity (dissociation constant, KD) to Hsp90α MD and Hsp90β MD (Table 1 and Figures S3–S10). The KD values of gambogic acid were also measured as control (Table 1 and Figure S11). […] Our KD values for gambogic acid are in agreement with previous studies (~10-fold preference). The selectivity for the β-isoform (over α-isoforms) was progressively less for weaker binders.
(§3) Fluorescence was measured using EnSpire Multimode Plate Reader (PerkinElmer, Melbourne, Australia). Experiments were performed in 20 µM of Hsp90 MD in 20 mM Tris (pH 7.5) and 0.2 M KCl. Different concentration of the virtual hits (InterBioScreen, Bar, Montenegro) or gambogic acid were added to the mixture. Excitation wavelength was 280 nm and intrinsic fluorescence was measured between 300 and 450 nm. The control experiment with Hsp90 MD on its own was conducted. Background fluorescence arising from the compound was subtracted to generate the final spectrum. The total volume per well of the 96-well microplate was 30 µL. Non-linear curve fitting of Equation (1) to the data was conducted using SigmaPlot 14.0 (Systat Software, San Jose, CA, USA). All tests were conducted in triplicate and the errors shown are standard deviation. KD was calculated for each binder using Equation (1), where Δobs is the changes in fluorescence intensity from the titrations, Δmax is the maximum fluorescence intensity change, [LT] represents the titrated ligand concentration, and [PT] indicates the protein concentration.
(§4) (1) Δobs=Δmax×(KD+[LT]+[PT])−(KD+[LT]+[PT])^2−(4×[PT]×[LT])/2×[PT]
(§5) Supplementary Figure S2. Screening of the virtual hits (1 mM) to Hsp90α/β MD (20 μM) by intrinsic protein fluorescence. Percentage fluorescence quenching was calculated with the […]
(§6) % Fluorescence quenching = (Iprotein − Iprotein+compound) […]
(§7) In which Iprotein denotes intrinsic fluorescence intensity of the protein in the absence of any compound, Iprotein+compound denotes intrinsic fluorescence intensity of the protein in the presence of the compound. Experiments were conducted in triplicate. Errors shown are standard […]
(§8) (1 picture or pasted object on this page, not shown here)

Test [2] has as its target T2, recombinant human Hsp90α MD (Homo sapiens, UniProt P07900).
T2 construct: made in house; host or cells: Escherichia coli BL21 (DE3)
In words: Intrinsic tryptophan fluorescence spectroscopy (quenching screen and KD titration) with Hsp90α MD. The class given is binding. Particulars: for binding to Hsp90α MD in initial screening: less than 40% quenching eliminated.
Excerpt: as §1, §2, §3, §4, §5, §6, §7, §8

Test [3] has as its target T1, recombinant human Hsp90β MD. Set-up: method as in PMID 27466407. Particulars: cited from earlier work.
The mark [4] stands for this setting: titration, 20 µM Hsp90 MD, 20 mM Tris pH 7.5, 0.2 M KCl, triplicate, error = SD, read-out: KD to Hsp90α MD.
[5] abbreviates: initial screen, 1 mM compound, 20 μM protein.

Where “and” joins values, the source holds several entries; their conditions need not be identical. Equal entries are not always repeated. Entries after “also recorded” stand apart in the source; their conditions may differ. Where two headings read alike, the source gives them in different places.

T1 sequence (P08238 286-546): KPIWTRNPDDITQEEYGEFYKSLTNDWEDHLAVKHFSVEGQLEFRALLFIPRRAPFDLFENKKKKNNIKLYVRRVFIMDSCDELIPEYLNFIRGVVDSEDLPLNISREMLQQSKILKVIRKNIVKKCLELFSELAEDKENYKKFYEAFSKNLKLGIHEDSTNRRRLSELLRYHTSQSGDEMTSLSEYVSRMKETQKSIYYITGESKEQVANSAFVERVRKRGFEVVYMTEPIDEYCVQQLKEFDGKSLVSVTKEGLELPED

As to `O=C(CNC(=O)OCc1ccccc1)Oc1cc(O)c2c(=O)cc(-c3ccccc3)oc2c1` [Compound 8, 5-hydroxy-4-oxo-2-phenyl-4H-chromen-7-yl ((benzyloxy)carbonyl)glycinate], the “binding to Hsp90β MD in initial screening” value (shortened to “binding to Hsp90β MD”) in test [1] (1 mM compound, 20 μM protein) was “bind to both Hsp90α MD and Hsp90β MD”. Also, the “selectivity (preference) for the β-isoform over the α-isoform in terms of KD” value (“selectivity (preference)” below) in test [1] is “slight preference for Hsp90α MD”. For the same compound, the Kd in test [1] (read-out: KD to Hsp90β MD) is above 500 µM; in test [2] (setting [4]) it was 284 ± 4 µM. The “binding to Hsp90α MD in initial screening” value (“binding to Hsp90α MD” for short) in test [2] (1 mM compound, 20 μM protein) was “bind to both Hsp90α MD and Hsp90β MD”.

With `COc1cc(C(=O)NC(Cc2ccccc2)C(=O)O)cc(OC)c1OC` (centres unmarked) [Compound 22, (3,4,5-trimethoxybenzoyl)phenylalanine], the “binding to Hsp90β MD” value in test [1] (1 mM compound, 20 μM protein) was “bind to both Hsp90α MD and Hsp90β MD”. The “selectivity (preference)” value in test [1] was “slight preference for Hsp90α MD”. For the same compound, the Kd in test [1] (read-out: KD to Hsp90β MD) is above 500 µM; in test [2] (setting [4]), 459 ± 7 µM. Moreover, in test [2] (1 mM compound, 20 μM protein), the “binding to Hsp90α MD” value is “bind to both Hsp90α MD and Hsp90β MD”.

Take `CC(=O)N[C@H]1[C@H](Oc2ccc3c(=O)c(-c4ccc5c(c4)OCCCO5)c(C)oc3c2)O[C@H](CO)[C@@H](O)[C@@H]1O` [Compound 17, N-((2S,3R,4R,5S,6R)-2-((3-(3,4-dihydro-2H-benzo[b][1,4]dioxepin-7-yl)-2-methyl-4-oxo-4H-chromen-7-yl)oxy)-4,5-dihydroxy-6-(hydroxymethyl)tetrahydro-2H-pyran-3-yl)acetamide]: the “binding to Hsp90β MD” value in test [1] (1 mM compound, 20 μM protein) was “bind to both Hsp90α MD and Hsp90β MD”. Moreover, the “selectivity (preference)” value in test [1] is “bind stronger to Hsp90β MD than to Hsp90α MD”. Besides, the Kd is > 100 µM and 285 µM in test [1] (read-out: KD to Hsp90β MD); 506 ± 4 µM in test [2] (setting [4]). Moreover, the “binding to Hsp90α MD” value in test [2] (1 mM compound, 20 μM protein) was “bind to both Hsp90α MD and Hsp90β MD”.

As for `CC(C)=CCC[C@]1(C)C=Cc2c(O)c3c(c(CC=C(C)C)c2O1)O[C@]12C(=C[C@@H]4C[C@H]1C(C)(C)O[C@@]2(C/C=C(/C)C(=O)O)C4=O)C3=O` [Gambogic acid, reference compound], in test [3], the “preference for Hsp90β MD over Hsp90α MD, previous study” value is reported as ~ 7 fold. In addition, the equilibrium dissociation constant (Kd) in test [1] (read-out: KD to Hsp90β MD) came to 33 ± 2 µM; in test [2] (setting [4]) it was 195 ± 5 µM.

As to `CCC(C)[C@@H](NC(=O)C(C)Oc1ccc2c(-c3ccccc3)cc(=O)oc2c1)C(=O)O` (stereo partly drawn) [Compound 9, (2R)-3-methyl-2-(2-((2-oxo-4-phenyl-2H-chromen-7-yl)oxy)propanamido)pentanoic acid], the “binding to Hsp90β MD” value in test [1] (1 mM compound, 20 μM protein) is “bind to both Hsp90α MD and Hsp90β MD”. Besides, the dissociation constant (Kd) in test [1] (read-out: KD to Hsp90β MD) came to 57 ± 1 µM; in test [2] (setting [4]) it was 299 ± 3 µM. Besides, the “binding to Hsp90α MD” value in test [2] (1 mM compound, 20 μM protein) was “bind to both Hsp90α MD and Hsp90β MD”.

Consider `CN[C@H]1CCc2cc(OC)c(OC)c(OC)c2-c2ccc(NCc3cccnc3)c(=O)cc21` [Compound 10, (S)-1,2,3-trimethoxy-7-(methylamino)-10-((pyridin-3-ylmethyl)amino)-6,7-dihydrobenzo[a]heptalen-9(5H)-one], for which the “selectivity (preference)” value in test [1] is “bind stronger to Hsp90β MD than to Hsp90α MD”. The dissociation constant (Kd) is > 100 µM and 164 µM in test [1] (KD to Hsp90β MD); above 500 µM in test [2]. The “fluorescence quenching of Hsp90β MD” value in test [1] (setting [5]) is ~ 90%. Moreover, in test [2] (setting [5]), the “fluorescence quenching of Hsp90α MD” value was ~ 20%.

With `CCC[C@@H](NC(=O)C(C)Oc1ccc2c(-c3ccccc3)cc(=O)oc2c1)C(=O)O` (stereo partly drawn) [Compound 5, (2R)-2-(2-((2-oxo-4-phenyl-2H-chromen-7-yl)oxy)propanamido)pentanoic acid], the “binding to Hsp90β MD” value in test [1] (1 mM compound, 20 μM protein) was “bind to both Hsp90α MD and Hsp90β MD”. For the same compound, the figures for the Kd in test [1] (read-out: KD to Hsp90β MD) and in test [2] (setting [4]) were 136 ± 1 µM and 470 ± 2 µM, respectively. Moreover, the “binding to Hsp90α MD” value in test [2] (1 mM compound, 20 μM protein) was “bind to both Hsp90α MD and Hsp90β MD”.

With `COc1cc(C2NC(C(=O)O)Cc3c2[nH]c2ccc(OCc4ccccc4)cc32)cc(OC)c1OC` (centres unmarked) [Compound 24, 6-(benzyloxy)-1-(3,4,5-trimethoxyphenyl)-2,3,4,9-tetrahydro-1H-pyrido[3,4-b]indole-3-carboxylic acid], the “binding to Hsp90β MD” value in test [1] (1 mM compound, 20 μM protein) is “bind to both Hsp90α MD and Hsp90β MD”. For the same compound, the “selectivity (preference)” value in test [1] is “bind stronger to Hsp90β MD than to Hsp90α MD”. In addition, the Kd is > 100 µM and 265 µM in test [1] (read-out: KD to Hsp90β MD); 661 ± 3 µM in test [2] (setting [4]). Moreover, in test [2] (1 mM compound, 20 μM protein), the “binding to Hsp90α MD” value was “bind to both Hsp90α MD and Hsp90β MD”.

Turning to `O=C(CC1=C(O)C(=O)c2ccccc2C1=O)c1ccccc1` [Compound 12, 2-hydroxy-3-(2-oxo-2-phenylethyl)naphthalene-1,4-dione], in test [1] (1 mM compound, 20 μM protein), the “binding to Hsp90β MD” value is “bind to both Hsp90α MD and Hsp90β MD”. The “selectivity (preference)” value in test [1] was “bind stronger to Hsp90β MD than to Hsp90α MD; also recorded: seven-fold”. Further, the Kd in test [1] (read-out: KD to Hsp90β MD) is below 20 µM; in test [2] (setting [4]), 92 ± 0.8 µM. The “binding to Hsp90α MD” value in test [2] (1 mM compound, 20 μM protein) is “bind to both Hsp90α MD and Hsp90β MD”.
